Measurements as given in US10406175B2, “Polymer-flavonoid conjugate and uses thereof” (Agency for Science, Technology and Research, priority 2014, dated 2019).

How the values were obtained:
Assay type in all cases: cell-based, human
[1] = tested on: TNF-α; assay: IL-1ß-induced TNF-α expression in OA chondrocytes (RT-PCR and ELISA); settings: IL-1ß 5 ng/ml, 24 h; EGCG 10 μM; HA or conjugate at two concentrations (FIGS. 2, 5)
Protocol: (§1) Cryopreserved human osteoarthritis chondrocytes (passage 1) were obtained from Cell Applications, INC. (USA). The cells were thawed and cultured in T75 cell culture flasks using complete growth medium (DMEM/F12 medium supplemented with 10% FBS and 1% penicillin/streptomycin). The cells were maintained at 37° C. and 5% CO2 atmosphere. Growth medium was replaced every 2-3 days and the cells were subcultured at 80% confluency. Only cells at passage 2 and 3 were used in this study. After expansion, the cells were re-differentiated in alginate beads according to previously established protocol with some modifications. Briefly, cells were trypsinized, pelleted and resuspended in 1.2% (w/v) sodium alginate in 0.15 M NaCl. The cell suspension was dispensed through a 210 needle dropwise into gelation solution (102 mM CaCl2, 10 mM HEPES and 0.0005% Tween 20, pH 7.4). Approximately 15 alginate beads were dispensed in 5 ml of gelation solution in a 6-wellplate. After gelation for 10 min, the gelation solution was removed and the alginate beads were washed twice with 5 ml of 0.15 M NaCl. Complete growth medium (5 ml) was then added and the cells were re-differentiated for 8 days in the alginate beads. Medium was changed every 2-3 days. After 8 days, the alginate beads were solubilized in dissolution solution (55 mM EDTA and 10 mM HEPES, pH 7.4).

[2] = tested on: MMP-3; assay: IL-1ß-induced MMP-3 expression in OA chondrocytes (RT-PCR and ELISA); settings: IL-1ß 5 ng/ml, 24 h; EGCG 10 μM; HA or conjugate at two concentrations (FIGS. 3, 6)
Protocol: as §1

[3] = tested on: MMP-1; assay: IL-1ß-induced MMP-1 expression in OA chondrocytes (RT-PCR and ELISA); settings: IL-1ß 5 ng/ml, 24 h; EGCG 10 μM; HA or conjugate at two concentrations (FIGS. 3, 6)
Protocol: as §1

[4] = tested on: IL-6; assay: IL-1ß-induced IL-6 expression in OA chondrocytes (RT-PCR and ELISA); settings: IL-1ß 5 ng/ml, 24 h; EGCG 10 μM; HA or conjugate at two concentrations (FIGS. 2, 5)
Protocol: as §1

[5] = tested on: MMP-13; assay: IL-1ß-induced MMP-13 expression in OA chondrocytes (RT-PCR and ELISA); settings: IL-1ß 5 ng/ml, 24 h; EGCG 10 μM; HA or conjugate at two concentrations (FIGS. 3, 6)
Protocol: as §1

O=C(O[C@@H]1Cc2c(O)cc(O)cc2O[C@@H]1c1cc(O)c(O)c(O)c1)c1cc(O)c(O)c(O)c1 [EGCG, epigallocatechin gallate]
effectively inhibited: downregulation of IL-1ß-induced TNF-α gene and protein expression [1] | downregulation of IL-1ß-induced MMP-3 gene and protein expression [2] | downregulation of IL-1ß-induced MMP-1 gene and protein expression [3] | downregulation of IL-1ß-induced IL-6 gene and protein expression [4] | downregulation of IL-1ß-induced MMP-13 gene and protein expression [5]
